This is an account of results in ChEMBL document CHEMBL1133074, “2-Methyladenosine-Substituted 2',5'-oligoadenylates: conformations, 2-5A binding and catalytic activities with human ribonuclease L” (Bioorg Med Chem Lett, 2000).

The target of assay [1] is T1, 2-5A-dependent ribonuclease (Homo sapiens, UniProt Q05823).
T1 sequence (Q05823 whole entry): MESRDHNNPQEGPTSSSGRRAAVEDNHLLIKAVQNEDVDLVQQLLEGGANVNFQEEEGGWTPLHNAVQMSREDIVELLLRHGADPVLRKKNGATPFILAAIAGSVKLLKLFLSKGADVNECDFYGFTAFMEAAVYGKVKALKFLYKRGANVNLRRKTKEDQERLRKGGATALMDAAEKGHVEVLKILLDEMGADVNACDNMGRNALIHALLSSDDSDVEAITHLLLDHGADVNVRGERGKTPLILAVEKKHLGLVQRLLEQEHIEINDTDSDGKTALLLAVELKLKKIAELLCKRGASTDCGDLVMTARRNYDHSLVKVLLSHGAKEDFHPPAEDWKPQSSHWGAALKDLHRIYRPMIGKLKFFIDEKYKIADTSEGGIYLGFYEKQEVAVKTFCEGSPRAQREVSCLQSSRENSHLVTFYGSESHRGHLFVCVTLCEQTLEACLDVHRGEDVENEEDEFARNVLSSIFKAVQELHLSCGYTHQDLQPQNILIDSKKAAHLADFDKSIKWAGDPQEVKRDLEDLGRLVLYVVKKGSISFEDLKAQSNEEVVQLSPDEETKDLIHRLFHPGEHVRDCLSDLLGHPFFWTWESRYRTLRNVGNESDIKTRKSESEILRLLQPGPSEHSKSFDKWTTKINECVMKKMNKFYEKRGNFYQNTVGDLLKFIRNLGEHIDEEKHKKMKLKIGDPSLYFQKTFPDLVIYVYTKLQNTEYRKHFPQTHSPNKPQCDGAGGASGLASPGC
The experiment in a line: Activation of purified recombinant human Ribonuclease L by the compound was measured as degradation of [32P]-pC11U2C7.

The target in assay [2] is T1, 2-5A-dependent ribonuclease. Nature of the assay: Activation of purified recombinant human Ribonuclease L by the compound was measured as degradation of poly (U) 3'[32P]p5'C3'p.
Assay [3] shares this target. Nature of the assay: Compound was tested for its binding ability, by displacement of p(A2'p)3A3'[32p]p5'Cp from recombinant human ribonuclease L.
Assay [4] can be described thus: (§1) Relative concentration required to cause 50% degradation of the [32P]-pC11U2C7.
The nature of assay [5]: (§2) Relative concentration required to cause 50% degradation of the poly (U) 3'[32P]p5'C3'p.
Assay [6] is described as follows: Ratio of quotient (binding IC50)/(activation EC50 for the poly (U) assay).
Assay [7] can be described thus: (§3) Relative concentration required to displace 50% of the p(A2'p)3A3'[32p]p5'Cp.
Assay [8] is described as follows: as §1. The format is functional.
Assay [9] is described as follows: as §2. Type of assay: functional.
The nature of assay [10]: as §3. Type of assay: functional.

With `Cc1nc(N)c2ncn([C@@H]3O[C@H](COP(=O)(O)OP(=O)(O)OP(=O)(O)O)[C@@H](O)[C@H]3OP(=O)(O)OC[C@H]3O[C@@H](n4cnc5c(N)ncnc54)[C@H](OP(=O)(O)OC[C@H]4O[C@@H](n5cnc6c(N)ncnc65)[C@H](O)[C@@H]4O)[C@@H]3O)c2n1`, the EC50 – broadly, the concentration that produces a half-maximal response – in assay [1] came out at 0.8 nM; in assay [2], 0.68 nM. Moreover, the half-inhibitory concentration (IC50) (usually the concentration that inhibits the measured activity by half) in assay [3] is 24 nM. Besides, the figures for the Crel in [4], in assay [5] and in [7] were 4, 5 and 3, respectively. Moreover, the Rn in assay [6] was 0.7.
Turning to `Cc1nc(N)c2ncn([C@@H]3O[C@H](COP(=O)(O)O)[C@@H](O)[C@H]3OP(=O)(O)OC[C@H]3O[C@@H](n4cnc5c(N)ncnc54)[C@H](OP(=O)(O)OC[C@H]4O[C@@H](n5cnc6c(N)ncnc65)[C@H](O)[C@@H]4O)[C@@H]3O)c2n1`, the concentration giving a half-maximal response (EC50) was found to be 0.7 nM in assay [1] and 0.84 nM in [2]. In [3], the IC50 came to 57 nM. Further, the Crel stood at 2.7 in [4], 6 in assay [5] and 8 in assay [7]. Further, the Rn in assay [6] was 1.4.
With `Cc1nc(N)c2ncn([C@@H]3O[C@H](COP(=O)(O)O[C@@H]4[C@H](O)[C@@H](COP(=O)(O)O[C@@H]5[C@H](O)[C@@H](COP(=O)(O)OP(=O)(O)OP(=O)(O)O)O[C@H]5n5cnc6c(N)nc(C)nc65)O[C@H]4n4cnc5c(N)nc(C)nc54)[C@@H](O)[C@H]3O)c2n1`, the figures for the 50% effective concentration (EC50) in assay [1] and in assay [2] were 4 nM and 4.6 nM, respectively. The IC50 in assay [3] turned out to be 105 nM. For the same molecule, the results for the Crel in assay [4], in assay [5] and in [7] were 20, 31 and 15, respectively. In addition, the Rn in assay [6] was determined as 0.5.
As to `Nc1ncnc2c1ncn2[C@@H]1O[C@H](COP(=O)(O)O[C@@H]2[C@H](O)[C@@H](COP(=O)(O)O[C@@H]3[C@H](O)[C@@H](COP(=O)(O)O)O[C@H]3n3cnc4c(N)ncnc43)O[C@H]2n2cnc3c(N)ncnc32)[C@@H](O)[C@H]1O`, the Crel in assay [4], in [5] and in [7] was 1 each time. In addition, in [6], the Rn was 1.
For the molecule `Cc1nc(N)c2ncn([C@@H]3O[C@H](COP(=O)(O)O[C@@H]4[C@H](O)[C@@H](COP(=O)(O)O[C@@H]5[C@H](O)[C@@H](COP(=O)(O)OP(=O)(O)OP(=O)(O)O)O[C@H]5n5cnc6c(N)ncnc65)O[C@H]4n4cnc5c(N)ncnc54)[C@@H](O)[C@H]3O)c2n1`, the 50% effective concentration (EC50) in assay [1] was determined as 0.3 nM; in assay [2] it was 0.24 nM. Also, the concentration for half-maximal inhibition (IC50) in [3] was determined as 0.72 nM. Also, the Crel in [4] was 1.5; in assay [5] it was 2; in [7], 0.1. Further, in assay [6], the Rn is 0.06.
As for `Cc1nc(N)c2ncn([C@@H]3O[C@H](COP(=O)(O)O[C@@H]4[C@H](O)[C@@H](COP(=O)(O)O[C@@H]5[C@H](O)[C@@H](COP(=O)(O)O)O[C@H]5n5cnc6c(N)nc(C)nc65)O[C@H]4n4cnc5c(N)nc(C)nc54)[C@@H](O)[C@H]3O)c2n1`, the EC50 in assay [1] amounted to 30 nM; in [2] it was 16 nM. The IC50 in assay [3] was found to be 1060 nM. The figures for the Crel in assay [4], in [5] and in [7] were 120, 107 and 146, respectively. For the same molecule, in assay [6], the Rn is 1.4.
With `Cc1nc(N)c2ncn([C@@H]3O[C@H](COP(=O)(O)O[C@@H]4[C@H](O)[C@@H](COP(=O)(O)O[C@@H]5[C@H](O)[C@@H](COP(=O)(O)O)O[C@H]5n5cnc6c(N)ncnc65)O[C@H]4n4cnc5c(N)ncnc54)[C@@H](O)[C@H]3O)c2n1`, the EC50 is 0.2 nM in [1] and 0.13 nM in [2]. Besides, in assay [3], the half-maximal inhibitory concentration (IC50) was determined as 2.6 nM. Moreover, the Crel in assay [8] came out at 1; in assay [9], 0.9; in [10], 0.4. The Rn in assay [6] came out at 0.4.
